One data set deals with T1, MT1 (MLT1a) (h) (Homo sapiens, UniProt P48039).
T1 construct: CEREP (Eurofins, France)
Nature of the data set: Radioligand binding, MT1 (MLT1a) (h). The conditions noted are these: 10^−5 M; agonist radioligand; % inhibition of control specific binding. As to the method:
(§1) Melafenoxate was tested at 10^−5 M, calculated as a % inhibition of control specific binding of a radioactively labeled ligand specific for each target.
(§2) This binding profile panel was broadly defined with roughly an equal number of selective, central and peripheral therapeutically relevant targets, including native animal tissues, radioligands and specific enzymes involved in cell cycle regulation in accordance with Eurofins Standard Operating Procedure.
(§3) For radioligand binding experiments, the half maximal inhibitory concentration (IC50) and the half maximal effective concentration (EC50) values were determined (via computer software) by nonlinear regression analysis of the competition curves using Hill equation curve fitting. The inhibition constants (Ki) were calculated using the Cheng-Prusoff equation (Ki=IC50/(1+(L/KD)), where L is the concentration of radioligand in the assay, and KD is the affinity of the radioligand for the receptor.^49
(§4) The results are expressed as a % control specific binding ([measured specific binding/control specific binding]×100) and as a % inhibition of control specific binding (100−[(measured specific binding/control specific binding)×100]) obtained in the presence of the test compounds. […]

The next data set deals with T2, NK2 (h) (Homo sapiens, UniProt P21452).
T2 construct: CEREP (Eurofins, France)
T2 sequence (P21452 1-398): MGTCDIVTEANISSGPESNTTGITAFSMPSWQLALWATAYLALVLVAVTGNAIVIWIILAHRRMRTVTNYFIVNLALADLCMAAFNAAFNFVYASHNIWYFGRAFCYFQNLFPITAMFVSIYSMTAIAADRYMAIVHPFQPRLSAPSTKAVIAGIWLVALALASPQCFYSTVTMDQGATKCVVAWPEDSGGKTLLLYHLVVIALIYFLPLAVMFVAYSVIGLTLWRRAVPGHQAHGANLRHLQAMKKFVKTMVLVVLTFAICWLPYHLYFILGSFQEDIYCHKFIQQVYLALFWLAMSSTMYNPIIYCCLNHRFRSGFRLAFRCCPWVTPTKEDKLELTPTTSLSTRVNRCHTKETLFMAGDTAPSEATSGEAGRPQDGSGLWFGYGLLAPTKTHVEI
Nature of the data set: Radioligand binding, NK2 (h). Particulars: 10^−5 M; agonist radioligand. As to the method: as §1, §2, §3, §4

The target in another data set is T3, 5-HT7 (h) (Homo sapiens, UniProt P34969).
T3 construct: CEREP (Eurofins, France)
T3 sequence (P34969 whole entry): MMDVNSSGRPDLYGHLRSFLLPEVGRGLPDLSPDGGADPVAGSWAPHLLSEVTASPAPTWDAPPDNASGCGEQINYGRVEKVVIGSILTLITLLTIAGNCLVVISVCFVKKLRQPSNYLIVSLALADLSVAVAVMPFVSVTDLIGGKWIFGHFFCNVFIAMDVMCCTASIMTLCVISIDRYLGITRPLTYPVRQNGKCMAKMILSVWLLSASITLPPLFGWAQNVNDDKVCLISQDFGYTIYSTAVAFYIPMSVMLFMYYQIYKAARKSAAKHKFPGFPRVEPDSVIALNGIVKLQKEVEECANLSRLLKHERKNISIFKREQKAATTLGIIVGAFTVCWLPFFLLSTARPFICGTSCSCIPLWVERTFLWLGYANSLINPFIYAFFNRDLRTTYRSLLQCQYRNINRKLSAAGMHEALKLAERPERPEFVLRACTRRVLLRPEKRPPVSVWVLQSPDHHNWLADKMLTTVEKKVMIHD
Kind of data set: Radioligand binding, 5-HT7 (h). Particulars: 10^−5 M; agonist radioligand. As to the method:
as §1, §2, §3, §4

The target in the next data set is T4, 5-HT1A (h) (Homo sapiens, UniProt P08908).
T4 construct: CEREP (Eurofins, France)
T4 sequence (P08908 1-422): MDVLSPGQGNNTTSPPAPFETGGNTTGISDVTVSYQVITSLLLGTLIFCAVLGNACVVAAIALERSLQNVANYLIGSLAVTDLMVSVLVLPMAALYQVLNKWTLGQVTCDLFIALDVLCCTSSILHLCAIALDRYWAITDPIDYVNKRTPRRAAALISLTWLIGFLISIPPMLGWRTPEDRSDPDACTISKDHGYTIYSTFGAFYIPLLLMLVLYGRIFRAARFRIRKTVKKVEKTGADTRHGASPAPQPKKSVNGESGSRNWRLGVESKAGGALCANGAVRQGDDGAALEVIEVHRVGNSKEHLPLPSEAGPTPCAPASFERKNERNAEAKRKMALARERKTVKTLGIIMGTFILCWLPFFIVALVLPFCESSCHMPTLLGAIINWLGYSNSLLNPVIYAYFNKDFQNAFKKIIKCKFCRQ
Kind of data set: Radioligand binding, 5-HT1A (h). The conditions noted are these: 10^−5 M; agonist radioligand. As to the method:
as §1, §2, §3, §4

For another data set, the system named is C57BL/6J mice. Kind of data set: Spontaneous locomotor activity in open-field. It counts as in vivo. The conditions noted are these: 3.125, 6.25, 12.5, 25, 50 and 100 mg/kg. As to the method: Experiments were carried out on C57BL/6J mice.
The effects of NLS-8 (6 doses) on spontaneous locomotor activity were examined. For this purpose, animals received an injection of NLS-8 (3.125, 6.25, 12.5, 25, 50 and 100 mg/kg) or its vehicle (Control group) (N=6/group) and were placed in an open-field for a 90-min session.
Locomotor activity (distance travelled in the open-field during the first, second and third 30-min period following treatment) was automatically recorded.
Data analysis: between group comparisons of all groups vs. the Control group: unpaired Student's t test.

Entries after “also recorded” stand apart in the source; their conditions may differ.

T1 sequence (P48039 whole entry): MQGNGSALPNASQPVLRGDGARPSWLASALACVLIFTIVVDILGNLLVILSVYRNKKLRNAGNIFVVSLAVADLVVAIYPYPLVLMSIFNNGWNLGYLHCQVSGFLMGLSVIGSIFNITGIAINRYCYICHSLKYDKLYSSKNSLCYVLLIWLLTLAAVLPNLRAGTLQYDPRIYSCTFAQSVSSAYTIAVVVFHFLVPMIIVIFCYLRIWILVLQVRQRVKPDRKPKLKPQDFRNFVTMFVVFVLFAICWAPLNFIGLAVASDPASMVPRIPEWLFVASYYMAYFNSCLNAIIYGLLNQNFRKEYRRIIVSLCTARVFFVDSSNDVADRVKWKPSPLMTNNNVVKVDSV

Broadly, the inhibition is the relative decrease from the control value, in per cent. A higher inhibition goes with a strong effect. Turning to `O=C(COc1ccc(Cl)cc1)OCCNC12CC3CC(CC(C3)C1)C2` [Melafenoxate, 2-(1-adamantylamino)ethyl 2-(4-chlorophenoxy)acetate], the inhibition at 10 µM at MT1 (MLT1a) (h) was 75.2%; on NK2 (h) it was 33.5%; on 5-HT7 (h), 12.8%; at 5-HT1A (h), 10.4%. In addition, the “distance travelled in the open-field (locomotor activity) vs. Control group” value with C57BL/6J mice (90-min session, C57BL/6J mice, listed as NLS-8) was “did not significantly modify; also recorded: no significant”. The visible side effect entry with C57BL/6J mice (any dose tested) is “did not induce visible side effect”.

Source of the values: US20250082598A1, “Melafenoxate, 2-(1-adamantylamino)ethyl 2-(4-chlorophenoxy)acetate and derivatives thereof for treating circadian rhythm sleep disorders with neurodegenerative diseases such as Alzheimer's disease” (NLS Pharmaceutics AG, priority 2021, published 2025).
